Consider 18 compounds from ChEMBL document CHEMBL3351819, “Clofazimine analogs with antileishmanial and antiplasmodial activity” (Bioorg Med Chem, 2015).

As a reminder, the pIC50 is the negative decadic logarithm of the IC50, by convention in mol/L.

Structures are written as SMILES. pIC50: −log10 of the molar value.

The test system of test [1] is Plasmodium falciparum. The test is described as follows: Antiplasmodial activity against chloroquine-resistant Plasmodium falciparum W2 assessed as inhibition of parasite growth after 72 hrs by parasite lactate dehydrogenase assay. The class given is functional, organism-based. As to conditions: W2, 72 h.
A short description of test [2]: Selectivity index, ratio of IC50 for HMEC1 to IC50 for Leishmania tropica MHOM/IT/2012/ISS3130.
In test [3] the test system is Plasmodium falciparum. As to the kind of experiment: Resistance index, ratio of IC50 for chloroquine-resistant Plasmodium falciparum W2 to IC50 for chloroquine-sensitive Plasmodium falciparum D10. The class given is functional.
Test [4] is described as follows: Selectivity index, ratio of IC50 for HMEC1 to IC50 for chloroquine-resistant Plasmodium falciparum W2.
A further test concerns Leishmania tropica. The test is described as follows: Antileishmanial activity against Leishmania tropica MHOM/IT/2012/ISS3130 promastigotes assessed as inhibition of parasite growth after 72 hrs by MTT assay. It counts as functional, organism-based. As to conditions: MHOM/IT/2012/ISS3130, 72 h. A general note: Formazan colour is commonly taken as a measure of viable cells.

Test [5] deals with Plasmodium falciparum. As to the kind of experiment: Antiplasmodial activity against chloroquine-sensitive Plasmodium falciparum D10 assessed as inhibition of parasite growth after 72 hrs by parasite lactate dehydrogenase assay. It counts as functional, organism-based. As to conditions: D10, 72 h.
The test system of another test is Leishmania infantum. As to the kind of experiment: Antileishmanial activity against Leishmania infantum MHOM/TN/80/IPT1 promastigotes assessed as inhibition of parasite growth after 72 hrs by MTT assay. The class given is functional, organism-based. The following applies: MHOM/TN/80/IPT1, 72 h.
Test [6] is described as follows: Cytotoxicity against HMEC1 cells after 72 hrs by MTT assay. The class given is cell-based. As to conditions: Homo sapiens, HMEC-1, 72 h.
Test [7] is described as follows: Selectivity index, ratio of IC50 for HMEC1 to IC50 for Leishmania infantum MHOM/TN/80/IPT1.
Test [8] can be described thus: Selectivity index, ratio of IC50 for HMEC1 to IC50 for chloroquine-sensitive Plasmodium falciparum D10.

Turning to `Cc1ccc(Nc2cc3nc4ccccc4n(-c4ccc(C)cc4)c-3c/c2=N/C[C@@H]2CCCN3CCCC[C@H]23)cc1.Cl`, the pIC50 in the test on Plasmodium falciparum [1] was 6.40; in the test on Leishmania tropica it was 6.33; with Plasmodium falciparum [5], 6.68; in the test on Leishmania infantum it was 6.34; in test [6], 5.80. In addition, the Ratio IC50 in test [2] is 3.3; in the test with Plasmodium falciparum [3], 1.9; in test [4], 3.9; in test [7], 3.4; in [8] it was 7.5.
For `Cl.c1ccc(-n2c3c/c(=N/CCCCC45CCCCN4CCCC5)c(Nc4cccnc4)cc-3nc3ccccc32)cc1`, the pIC50 in the test on Plasmodium falciparum [1] was 6.68; with Leishmania tropica it was 5.70; in the test with Plasmodium falciparum [5], 6.55; in the test with Leishmania infantum, 5.22; in [6], 5.41. Further, the Ratio IC50 in test [2] amounted to 1.9; in the test on Plasmodium falciparum [3], 0.8; in test [4], 18.5; in [7] it was 0.6; in test [8], 13.9.
With `Cl.Clc1ccc(Nc2cc3nc4ccccc4n(-c4ccc(Cl)cc4)c-3c/c2=N/CC23CCCN2CCC3)cc1`, the negative logarithm of the IC50 (pIC50) in the test with Plasmodium falciparum [1] was 6.12; in the test with Leishmania tropica, 5.13; in the test with Plasmodium falciparum [5] it was 6.21; in [6], 5.45. Further, the Ratio IC50 in [2] was found to be 0.5; in the test on Plasmodium falciparum [3], 1.2; in test [4], 4.8; in [8] it was 5.8.
For the compound `CN(C)CCC/N=c1/cc2n(-c3ccc(Cl)cc3)c3ccccc3nc-2cc1Nc1cccnc1`, the negative-log IC50 (pIC50) with Plasmodium falciparum [1] is 6.55; in the test on Leishmania tropica it was 6.11; in the test on Plasmodium falciparum [5], 6.40; with Leishmania infantum it was 6.39; in test [6], 5.33. The Ratio IC50 in [2] was found to be 6.1; in the test with Plasmodium falciparum [3], 0.7; in test [4], 16.6; in test [7], 11.4; in test [8], 11.7.
Regarding `c1ccc(Nc2cc3nc4ccccc4n(-c4ccccc4)c-3c/c2=N/CCC[C@@H]2CCCN3CCCC[C@H]23)cc1`, the pIC50 in the test on Plasmodium falciparum [1] was 7.20; with Leishmania tropica, 5.57; in the test with Plasmodium falciparum [5], 6.92; with Leishmania infantum, 5.80; in test [6], 5.35. The Ratio IC50 in test [2] came to 1.7; with Plasmodium falciparum [3], 0.5; in [4] it was 71.4; in test [7], 2.8; in test [8], 36.6.
`Cl.c1ccc(Nc2cc3nc4ccccc4n(-c4ccccc4)c-3c/c2=N/CCN2CCCC2)cc1`: the pIC50 in the test on Plasmodium falciparum [1] is 6.96; in the test on Leishmania tropica, 4.91; in the test on Plasmodium falciparum [5], 6.74; in [6] it was 5.86. The Ratio IC50 in test [2] came out at 0.1; in the test with Plasmodium falciparum [3], 0.6; in [4] it was 12.6; in test [8] it was 7.7.
For the compound `Cl.c1ccc(Nc2cc3nc4ccccc4n(-c4ccccc4)c-3c/c2=N/CC23CCCN2CCC3)cc1`, the pIC50 in the test on Plasmodium falciparum [1] is 6.36; in the test with Leishmania tropica it was 5.01; with Plasmodium falciparum [5] it was 6.19; in [6], 5.58. The Ratio IC50 in test [2] came to 0.3; in the test on Plasmodium falciparum [3], 0.7; in test [4], 6; in test [8], 4.1.
`Cl.c1ccc(Nc2cc3nc4ccccc4n(-c4ccccc4)c-3c/c2=N/CCC23CCCN2CCC3)cc1`: the pIC50 with Plasmodium falciparum [1] was 6.54; in the test on Leishmania tropica, 5.96; in the test with Plasmodium falciparum [5], 6.47; in the test on Leishmania infantum, 6.04; in [6] it was 5.72. Moreover, the Ratio IC50 amounted to 1.7 in test [2]; 0.9 in the test with Plasmodium falciparum [3]; 6.5 in [4]; 2.1 in test [7]; 5.5 in test [8].
In the case of `Cl.Fc1ccc(Nc2cc3nc4ccccc4n(-c4ccc(F)cc4)c-3c/c2=N/CCCCCCC23CCCCN2CCCC3)cc1`, the pIC50 is 6.47 in the test with Plasmodium falciparum [1]; 6.48 with Leishmania tropica; 6.55 with Plasmodium falciparum [5]; 6.37 in the test on Leishmania infantum; 5.73 in [6]. For the same compound, the Ratio IC50 is 5.5 in test [2]; 1.2 in the test with Plasmodium falciparum [3]; 5.5 in test [4]; 4.3 in test [7]; 6.7 in test [8].
Take `Cl.Clc1ccc(-n2c3c/c(=N/CCCCC45CCCCN4CCCC5)c(Nc4cccnc4)cc-3nc3ccccc32)cc1`: the pIC50 was 6.74 in the test on Plasmodium falciparum [1]; 6.47 with Leishmania tropica; 6.66 in the test on Plasmodium falciparum [5]; 6.47 in the test with Leishmania infantum; 5.63 in test [6]. Also, the Ratio IC50 in test [2] stood at 6.9; in the test on Plasmodium falciparum [3], 0.8; in [4], 12.9; in test [7], 6.9; in [8], 10.6.
On to `C[N+]12CCCCC1(CCCC/N=c1/cc3n(-c4ccccc4)c4ccccc4nc-3cc1Nc1ccccc1)CCCC2.[I-]` (configuration not stated), for which the pIC50 with Plasmodium falciparum [1] was 6.57; in the test on Leishmania tropica, 5.96; in the test on Plasmodium falciparum [5], 6.72; in the test with Leishmania infantum, 5.57; in [6] it was 4.96. In addition, the Ratio IC50 in test [2] was 10.1; in the test on Plasmodium falciparum [3] it was 1.4; in test [4] it was 41; in [7], 4.1; in [8] it was 58.2.
Consider `c1ccc(Nc2cc3nc4ccccc4n(-c4ccccc4)c-3c/c2=N/CC[C@@H]2CCCN3CCCC[C@H]23)cc1`, for which the pIC50 was 6.57 in the test with Plasmodium falciparum [1] and 6.74 with Plasmodium falciparum [5]. In addition, the “Ratio IC50” value in the test on Plasmodium falciparum [3] amounted to 1.5.
Consider `Clc1ccc(Nc2cc3nc4ccccc4n(-c4ccc(Cl)cc4)c-3c/c2=N/C[C@@H]2CCCN3CCCC[C@H]23)cc1`, for which the values for the pIC50 in the test on Plasmodium falciparum [1] and in the test with Plasmodium falciparum [5] were 6.02 and 6.35, respectively. Further, the “Ratio IC50” value with Plasmodium falciparum [3] came out at 2.1.
Take `c1ccc(Nc2cc3nc4ccccc4n(-c4ccccc4)c-3c/c2=N/C[C@H]2CCCN3CCCC[C@H]23)cc1`: the negative-log IC50 (pIC50) in the test with Plasmodium falciparum [1] was 6.62; with Plasmodium falciparum [5], 6.85. Further, the “Ratio IC50” value in the test on Plasmodium falciparum [3] came to 1.7.
Take `Cl.Fc1ccc(Nc2cc3nc4ccccc4n(-c4ccc(F)c(Cl)c4)c-3c/c2=N/CCCCCCC23CCCCN2CCCC3)cc1Cl`: the negative logarithm of the IC50 (pIC50) is 6.24 with Plasmodium falciparum [1]; 6.62 in the test on Leishmania tropica; 6.51 with Plasmodium falciparum [5]; 6.46 in the test on Leishmania infantum; 5.87 in test [6]. Further, the Ratio IC50 in test [2] worked out at 5.5; with Plasmodium falciparum [3] it was 1.9; in [4], 2.4; in [7] it was 3.9; in test [8] it was 4.4.
`c1ccc(Nc2cc3nc4ccccc4n(-c4ccccc4)c-3c/c2=N/C[C@@H]2CCCN3CCCC[C@H]23)cc1`: the negative-log IC50 (pIC50) in the test with Plasmodium falciparum [1] was 6.09; with Plasmodium falciparum [5], 6.43. In addition, the “Ratio IC50” value with Plasmodium falciparum [3] is listed as 2.2.
Take `Cl.Fc1ccc(Nc2cc3nc4ccccc4n(-c4ccc(F)cc4)c-3c/c2=N/CCCCC23CCCCN2CCCC3)cc1`: the pIC50 was 6.41 in the test on Plasmodium falciparum [1]; 6.08 in the test on Leishmania tropica; 6.62 in the test with Plasmodium falciparum [5]; 6.32 in the test on Leishmania infantum; 5.71 in [6]. Besides, the Ratio IC50 was determined as 2.3 in test [2]; 1.6 in the test on Plasmodium falciparum [3]; 5 in [4]; 4.1 in test [7]; 8.2 in [8].
Consider `CCN(CC)CCCC(C)Nc1ccnc2cc(Cl)ccc12` (configuration not stated) [CHLOROQUINE], for which, in test [6], the pIC50 is < 4.42.
